Where two headings read alike, the source gives them in different places. Where no end group is shown, it is not given here.

Series [1] addresses T1, HLA DRB1 *0701 (Homo sapiens, UniProt P01903+P01911, A100R/A102G/A103Q/D57E/D86V/E43K/F76Y/K127E/L162R/M171V/P40G/Q125H/Q99D/R33Q/R42Y/R54Q/S133A/S66F/T210M/V115G/Y107V/Y59L/Y89S). The series is described as follows: IC50nM to purified HLA | DRB1 *0701. The procedure:
(§1) Table printed on a drawing sheet, FIG. 1 (contd.)
(§2) Head of the field: IC50nM to purified HLA | DRB1 *0701
(§3) First copying reader's note: Continued from an earlier sheet of FIG. 1; decimal commas as printed, analog names encode substituted residues and positions, and some values are printed in italics or bold and some SEQ ID NOs underlined without a legend on this sheet.
(§4) Where the first naming reader finds the target: head: IC50nM to purified HLA | DRB1 *0701

In series [2] the target is T2, HLA DRB1 *1302 (Homo sapiens, UniProt P01903+P01911, A100E/A169T/K41T/L162R/M171V/P40S/Q125H/Q178H/Q39Y/Q99D/R42S/S66N/T262R/V115G/W38E/Y61H). Put plainly: IC50nM to purified HLA | DRB1 *1302. As for the experimental part: as §1
T2 sequence (P01903 26-254 limits assumed, other chains not shown): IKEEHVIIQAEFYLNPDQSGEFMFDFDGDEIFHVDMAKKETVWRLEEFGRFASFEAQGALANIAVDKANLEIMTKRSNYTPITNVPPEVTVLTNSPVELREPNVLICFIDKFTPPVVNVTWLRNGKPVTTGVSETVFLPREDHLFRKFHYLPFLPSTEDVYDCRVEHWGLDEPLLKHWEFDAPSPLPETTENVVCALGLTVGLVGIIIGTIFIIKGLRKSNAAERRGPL
(§5) Head of the field: IC50nM to purified HLA | DRB1 *1302
as §3
(§6) Where the first naming reader finds the target: head: IC50nM to purified HLA | DRB1 *1302

In series [3] the target is HLA DRB4 *0101 (Homo sapiens, UniProt P01903+P13762, G164S). The series is described as follows: IC50nM to purified HLA | DRB4 *0101. The procedure:
as §1
Head of the field: IC50nM to purified HLA | DRB4 *0101
as §3
Where the first naming reader finds the target: head: IC50nM to purified HLA | DRB4 *0101

Series [4] has as its target HLA DRB1 *0404 (Homo sapiens, UniProt P01903+P01911, A100R/A169T/F76Y/I96L/K127E/L162R/M171V/N62H/P40V/Q125Y/R42H/S133A/S149N/S66Y/V209L/W38E). The series is described as follows: IC50nM to purified HLA | DRB1 *0404. The procedure:
as §1
Head of the field: IC50nM to purified HLA | DRB1 *0404
as §3
Where the first naming reader finds the target: head: IC50nM to purified HLA | DRB1 *0404

Series [5] concerns the target T3, HLA DRB1 *0405 (Homo sapiens, UniProt P01903+P01911, A100R/A169T/D86S/F76Y/I96L/K127E/L162R/M171V/N62H/P40V/Q125Y/R42H/S133A/S149N/S66Y/V115G/V209L/W38E). Put plainly: IC50nM to purified HLA | DRB1 *0405. The procedure: as §1
Head of the field: IC50nM to purified HLA | DRB1 *0405
as §3
Where the first naming reader finds the target: head: IC50nM to purified HLA | DRB1 *0405

Series [6] deals with HLA DRB1 *1501 (Homo sapiens, UniProt P01903+P01911). Put plainly: IC50nM to purified HLA | DRB1 *1501. The procedure: as §1
Head of the field: IC50nM to purified HLA | DRB1 *1501
as §3
Where the first naming reader finds the target: head: IC50nM to purified HLA | DRB1 *1501

Series [7] deals with T4, HLA DRB1 *0802 (Homo sapiens, UniProt P01903+P01911, A100R/A103L/A169T/F76Y/H45Y/I96F/K41T/L162R/M171V/P40S/Q125H/Q178H/Q39Y/Q99D/R218S/R42G/S66Y/V115G/W38E). Put plainly: IC50nM to purified HLA | DRB1 *0802. As for the experimental part: as §1
Head of the field: IC50nM to purified HLA | DRB1 *0802
as §3
Where the first naming reader finds the target: head: IC50nM to purified HLA | DRB1 *0802

In series [8] the test system is crude extract from E. coli. The series is described as follows: In situ protease assay: TNFα variants in E. coli crude extract, SDS-PAGE and Western blot. Type of series: in vitro ADME. Conditions: sequence inserted into loop EF of human TNFα, procedure of Example 2. As for the experimental part: In order to test the protease resistance of selected, good binding PADRE analogues, their sequences were inserted by cloning techniques into a loop (loop EF) in human TNFα. Cell-free protein crude extract from E. coli expressing the modified TNFα molecules was prepared and proteolytic cleavage within the PADRE analogue sequences was analysed by SDS-PAGE followed by immunoblotting.
A synthetic cDNA encoding TNF (Y87S) was used as template. Oligonucleotides encoding PADRE or PADRE analogues were inserted into the template between A185 and E186 by PCR (cf. above). Resulting cDNAs were cloned into pET28b+(Novagen) and transformed into E. coli strain HMS 174. For recombinant expression, the resulting E. coli strains were cultured in fermentors in a defined medium at 37° C. Induction of recombinant expression was initiated by the addition of 1 mM of IPTG and temperature was lowered to 25° C. Cultures were harvested at 4, 8 or 24 h post-IPTG induction. TNFα variants were purified to >90% homogeneity by affinity chromatography using a TNFα specific monoclonal antibody as described in Nielsen et al., (2004), J Biol. Chem. 279:33593-33600. The purified TNFα variants were characterized by MALDI-TOF mass spectrometry to verify their identity and integrity.
In Situ Protease Assay: Analysis of the Protease Resistance of TNF-α Variants Using Western Blot
Aliquots (1 ml) of E. coli cell cultures, expressing the various TNF-α variants to be tested, were centrifuged (5000 g/5 min/5° C.) and the culture medium was discarded. Cell pellets were resuspended in 1 ml of 20 mM Bis-Tris, pH 6.0. Cell disruption was achieved by sonication (4×15 sec at an amplitude of 11 μm with 20 sec pauses between each sonication round). The resulting suspensions were centrifuged (20000 g/30 min/8° C.) and the supernatants (crude extracts) were transferred to fresh tubes. Crude extracts were then analysed for protein content using a Bradford protein assay (Biorad). Equivalent amounts of proteins were loaded onto 4-12% NuPAGE gels (Novex). After SDS-PAGE, proteins were transferred onto nitrocellulose membrane by semi-dry blotting. For immunoreaction, incubation with rabbit TNFα antiserum (1 h; dilution 1:10 000) and with horse radish peroxidase-conjugated secondary antibody (Dako P448) were carried out in Tris 50 mM, NaCl 150 mM, EDTA 5 mM, Igepal 0.1%, gelatine 0.5%. Detection was with ECL™ reagents (GE Healthcare).

Series [9] concerns the target T2, HLA DRB1 *1302. Put plainly: IC50nM to purified HLA | DRB1 *1302. The procedure:
as §1, §5
(§7) First copying reader's note: Continued from the preceding sheet of FIG. 1; decimal commas are used, the analog names give the substituted residues and positions in PADRE, and some values are printed in italics or bold and some SEQ ID NOs bold and underlined without a legend on this sheet.
as §6
The source holds these as a separate data set.

The target in series [10] is HLA DRB1 *0301 (Homo sapiens, UniProt P01903+P01911, A100K/A102G/A103R/A169T/F55Y/I96L/K41T/L162R/M171V/P40S/Q125H/Q178H/Q39Y/R42S/S66N/T106N/T262R/W38E/Y61H). Put plainly: IC50nM to purified HLA | DRB1 *0301.
HLA DRB1 *0301, sequence (P01903 26-254 limits assumed, other chains not shown): as above
For series [11], the target named is HLA DRB1 *0101 (Homo sapiens, UniProt P01903+P01911, A100R/D57E/F55L/F60I/F76Y/I96L/L162R/M171V/P40L/Q125E/R42F/V115G/Y59C). Put plainly: IC50nM to purified HLA | DRB1 *0101.
Series [12] addresses HLA DRB1 *0901 (Homo sapiens, UniProt P01903+P01911, A100R/A103E/D57H/D86V/F55Y/F60I/F76Y/I96F/K127E/L162R/M171V/P40D/Q125H/Q99R/R33Q/R42F/S133A/S66N/T210M/V115G/W38K/Y107V/Y59G/Y89S). The series is described as follows: IC50nM to purified HLA | DRB1 *0901.
The target of series [13] is HLA DRB1 *1101 (Homo sapiens, UniProt P01903+P01911, A100R/A169T/A87E/I96F/K41T/L162R/M171V/P40S/Q125H/Q178H/Q39Y/Q99D/R42S/S66Y/T262R/V115G/W38E). The series is described as follows: IC50nM to purified HLA | DRB1 *1101.
HLA DRB1 *1101, sequence (P01903 26-254 limits assumed, other chains not shown): as above
The target in series [14] is T1, HLA DRB1 *0701. The series is described as follows: IC50nM to purified HLA | DRB1 *0701. As for the experimental part: as §1, §2, §7, §4
The source holds these as a separate data set.

Series [15] has as its target HLA DRB5 *0101 (Homo sapiens, UniProt P01903+Q30154). Put plainly: IC50nM to purified HLA | DRB5 *0101. As for the experimental part:
as §1
Head of the field: IC50nM to purified HLA | DRB5 *0101
as §7
Where the first naming reader finds the target: head: IC50nM to purified HLA | DRB5 *0101

The target in series [16] is T3, HLA DRB1 *0405. The series is described as follows: IC50nM to purified HLA | DRB1 *0405. This is another data set of the same source.
The target of series [17] is T4, HLA DRB1 *0802. Put plainly: IC50nM to purified HLA | DRB1 *0802. The source holds these as a separate data set.
The target in series [18] is HLA DRB1 *0401 (Homo sapiens, UniProt P01903+P01911, A100K/A169T/F76Y/I96L/K127E/L162R/M171V/N62H/P40V/Q125Y/R42H/S133A/S149N/S66Y/V115G/V209L/W38E). Put plainly: IC50nM to purified HLA | DRB1 *0401. The procedure: as §1
Head of the field: IC50nM to purified HLA | DRB1 *0401
as §7
Where the first naming reader finds the target: head: IC50nM to purified HLA | DRB1 *0401

HLA DRB4 *0101, sequence (P01903 26-254 limits assumed): as the sequence (P01903 26-254 limits assumed, other chains not shown) above
HLA DRB4 *0101, sequence (P13762 whole entry G164S): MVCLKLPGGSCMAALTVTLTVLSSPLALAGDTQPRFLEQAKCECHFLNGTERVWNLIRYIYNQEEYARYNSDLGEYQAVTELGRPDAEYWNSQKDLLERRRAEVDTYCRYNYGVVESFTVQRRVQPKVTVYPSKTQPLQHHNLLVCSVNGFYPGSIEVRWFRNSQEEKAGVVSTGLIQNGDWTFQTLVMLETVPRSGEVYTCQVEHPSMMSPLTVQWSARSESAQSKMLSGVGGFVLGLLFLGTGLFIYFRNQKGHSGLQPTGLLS

As for AAAIFVAAWTLHAAA [SEQ ID NO: 69], the IC50 in series [1] came out at 78 nM; in series [2], 891 nM; in series [3], 84 nM; in [4], 3.7 nM; in series [5], 13 nM; in [6], 9.4 nM. In series [7], this sequence had an IC50 of 12 nM. Moreover, the “protease resistance of PADRE analogue sequence” value in series [8] is “increased resistance towards proteolytic degradation”.

Consider AAAHFVAANTLHAAA [SEQ ID NO: 29], for which the half-inhibitory concentration (IC50) in series [9] was 47 nM; in series [10], 361 nM; in series [11], 4.1 nM; in series [12], 37 nM; in series [13] it was 22 nM; in [14], 76 nM. The IC50 in series [15] amounted to 33 nM; in [16], 18 nM; in series [17] it was 17 nM; in series [18], 4.5 nM. In series [8], the “protease resistance of PADRE analogue sequence” value is “increased resistance towards proteolytic degradation”.

These data come from patent US9789181B2, “PAN-DR binding polypeptides and uses thereof” (Epimmune Inc., priority 2009, dated 2017).
